This passage reports Dmax results from patent US11739101B2, “Bifunctional degraders of hematopoietic progenitor kinase and therapeutic uses thereof” (Nurix Therapeutics, Inc., priority 2020, dated 2023).

For the test, the target named is T1, HPK1 (Homo sapiens, UniProt Q92918).
T1 construct: A HiBiT tag was introduced by CRISPR on the N terminus of HPK1 in Jurkat cells; host or cells: Jurkat (ATCC TIB-152), monoclonal CRISPR HiBiT knock-in line
The test is described as follows: HPK1 Cellular HiBiT Degradation Assay. In kind it is cell-based. The conditions noted are these: HiBiT-tagged HPK1 Jurkat cells, 24 hours, 10 uM to 0.1 nM; Dmax = 100 minus lowest % HPK1 remaining vs DMSO vehicle. On the procedure: HiBiT HPK1 Jurkat cell lines were used to evaluate the total protein levels of HPK1 in a robust human cellular high throughput format. The level of HPK1 remaining following treatment with HPK1 CTMs is reported as Dmax (maximum degradation) achieved at 24 hours when compared to vehicle treated controls. […] These decreases were not a result of cytotoxicity measured by a parallel viability assessment (CTG). See also Table 1.
A HiBiT tag was introduced by CRISPR on the N terminus of HPK1 in Jurkat cells (ATCC® TIB-152) to allow quantitation of HPK1 protein levels in a monoclonal human cell line. Cells were plated at 1×10^6 cells/mL, 30 uL/well (3×10^4 cells/well) in complete RPMI 1640 (10% heat inactivated FBS, 1% L-glutamine) in 384-well assay plates (Corning, cat. no. 3570). HPK1 chimeric targeting molecules (CTMs) were added in an 11-point dilution series (3.16-fold) with a final assay concentration range of 10 uM to 0.1 nM. The parental Jurkat cell line, with no HiBiT insertion, was included in the assay as a background control. Cells treated with a DMSO vehicle control were used to determine the maximum signal defining 100% HPK1 in the cell. Cells were incubated for 24 hours at 37° C./5% CO2. Following incubation, 30 uL of complete Nano-Glo HiBiT Lytic Detection Reagent (Promega cat. no. N3040) was added. Cells were incubated for 10 minutes at room temperature and luminescence was read on an EnVision plate reader (Perkin Elmer, 0.1 sec per well). Parallel plates were assessed for viability using Cell Titer Glo (Promega) and read on an EnVision plate reader to ensure results were not the effect of cytotoxicity. Percent HPK1 remaining per sample was calculated as follows: […]
% HPK1 remaining values were plotted as a function of compound concentration and curves were fit using the Prism (GraphPad) equation “log(inhibitor) vs response−Variable slope (four parameters)”. Dmax values were calculated by identifying the lowest % remaining and subtracting from 100. Dmax values are provided in Table 1, wherein A>65%, 45%≤B≤65% and C<45%.

Structures are written as SMILES.

T1 sequence (Q92918 whole entry): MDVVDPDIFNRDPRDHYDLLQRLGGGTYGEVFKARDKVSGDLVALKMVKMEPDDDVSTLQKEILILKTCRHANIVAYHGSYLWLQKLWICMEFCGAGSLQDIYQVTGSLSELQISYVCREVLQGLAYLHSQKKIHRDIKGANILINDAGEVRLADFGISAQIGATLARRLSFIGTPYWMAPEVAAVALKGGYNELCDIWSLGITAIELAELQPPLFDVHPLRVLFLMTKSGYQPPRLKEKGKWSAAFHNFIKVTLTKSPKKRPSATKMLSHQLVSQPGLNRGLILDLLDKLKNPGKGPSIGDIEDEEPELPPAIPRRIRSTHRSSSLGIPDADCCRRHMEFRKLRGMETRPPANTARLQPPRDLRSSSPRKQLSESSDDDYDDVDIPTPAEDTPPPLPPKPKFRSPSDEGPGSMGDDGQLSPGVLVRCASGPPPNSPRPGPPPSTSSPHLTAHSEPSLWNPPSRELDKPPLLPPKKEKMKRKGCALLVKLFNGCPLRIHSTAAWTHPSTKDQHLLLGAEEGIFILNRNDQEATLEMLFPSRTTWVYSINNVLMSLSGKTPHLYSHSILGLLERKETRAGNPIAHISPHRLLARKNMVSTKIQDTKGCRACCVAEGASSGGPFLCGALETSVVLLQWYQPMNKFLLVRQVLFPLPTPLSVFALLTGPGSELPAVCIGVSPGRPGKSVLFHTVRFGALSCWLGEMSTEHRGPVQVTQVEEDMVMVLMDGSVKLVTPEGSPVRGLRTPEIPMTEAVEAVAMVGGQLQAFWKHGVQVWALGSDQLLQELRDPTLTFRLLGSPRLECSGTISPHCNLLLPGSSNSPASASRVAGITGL

As for `Cc1cc(F)c(Nc2nc(-c3ccc4c(c3)N([C@H]3C[C@@H](N5CCCCC5)C3)C(=O)C43CCN(C(=O)CN4CCN(c5ccc6c(c5)C(=O)N(C5CCC(=O)NC5=O)C6=O)CC4)CC3)cc3ncn(C(C)C)c23)cc1C(=O)NC(C)C` (mixture of isomers) [Example 23, 5-[(6-{1′-[2-(4-{2-[(3RS)-2,6-dioxopiperidin-3-yl]-1,3-dioxo-2,3-dihydro-1H-isoindol-5-yl}piperazin-1-yl)acetyl]-2-oxo-1-[(1s,3s)-3-(piperidin-1-yl)cyclobutyl]-1,2-dihydrospiro[indole-3,4′-piperidin]-6-yl}-3-(propan-2-yl)-3H-imidazo[4,5-c]pyridin-4-yl)amino]-4-fluoro-2-methyl-N-(propan-2-yl)benzamide], the Dmax was below 45%.

In turn, `Cc1cc(F)c(Nc2nc(-c3ccc4c(c3)N([C@H]3C[C@@H](N5CCCCC5)C3)C(=O)C43CCN(C(=O)C4CCN(C(=O)C5CCN(c6cccc7c6C(=O)N(C6CCC(=O)NC6=O)C7=O)CC5)C4)CC3)cc3ncn(C(C)C)c23)cc1C(=O)NC(C)C` (mixture of isomers) [Example 25, 5-[(6-{1′-[1-(1-{2-[(3RS)-2,6-dioxopiperidin-3-yl]-1,3-dioxo-2,3-dihydro-1H-isoindol-4-yl}piperidine-4-carbonyl)pyrrolidine-3-carbonyl]-2-oxo-1-[(1s,3s)-3-(piperidin-1-yl)cyclobutyl]-1,2-dihydrospiro[indole-3,4′-piperidin]-6-yl}-3-(propan-2-yl)-3H-imidazo[4,5-c]pyridin-4-yl)amino]-4-fluoro-2-methyl-N-(propan-2-yl)benzamide] showed a Dmax of 45 to 65%.

For the molecule `Cc1cc(F)c(Nc2nc(-c3ccc4c(c3)N([C@H]3C[C@@H](N5CCCCC5)C3)C(=O)C43CCN(C(=O)CCCCCCCCCNc4cccc5c4C(=O)N(C4CCC(=O)NC4=O)C5=O)CC3)cc3ncn(C(C)C)c23)cc1C(=O)NC(C)C` (stereo partly drawn) [Example 1, 5-((6-(1′-(10-((2-(2,6-dioxopiperidin-3-yl)-1,3-dioxoisoindolin-4-yl)amino)decanoyl)-2-oxo-1-((1s,3s)-3-(piperidin-1-yl)cyclobutyl)spiro[indoline-3,4′-piperidin]-6-yl)-3-isopropyl-3H-imidazo[4,5-c]pyridin-4-yl)amino)-4-fluoro-N-isopropyl-2-methylbenzamide], the Dmax was below 45%.

Molecule `Cc1cc(F)c(Nc2nc(-c3ccc4c(c3)N([C@H]3C[C@@H](N5CCCCC5)C3)C(=O)C43CCN(C(=O)CCOCCOCCOCCOCCNc4cccc5c4C(=O)N(C4CCC(=O)NC4=O)C5=O)CC3)cc3ncn(C(C)C)c23)cc1C(=O)NC(C)C` (stereo partly drawn) [Example 2, 5-((6-(1′-(1-((2-(2,6-dioxopiperidin-3-yl)-1,3-dioxoisoindolin-4-yl)amino)-3,6,9,12-tetraoxapentadecan-15-oyl)-2-oxo-1-((1s,3s)-3-(piperidin-1-yl)cyclobutyl)spiro[indoline-3,4′-piperidin]-6-yl)-3-isopropyl-3H-imidazo[4,5-c]pyridin-4-yl)amino)-4-fluoro-N-isopropyl-2-methylbenzamide] displayed a Dmax of 45 to 65%.

`Cc1cc(F)c(Nc2nc(-c3ccc4c(c3)N([C@H]3C[C@@H](N5CCCCC5)C3)C(=O)C43CCN(C(=O)CCCCCCCNc4ccc5c(c4)C(=O)N(C4CCC(=O)NC4=O)C5=O)CC3)cc3ncn(C(C)C)c23)cc1C(=O)NC(C)C` (stereo partly drawn) [Example 3, 5-((6-(1′-(8-((2-(2,6-dioxopiperidin-3-yl)-1,3-dioxoisoindolin-5-yl)amino)octanoyl)-2-oxo-1-((1s,3s)-3-(piperidin-1-yl)cyclobutyl)spiro[indoline-3,4′-piperidin]-6-yl)-3-isopropyl-3H-imidazo[4,5-c]pyridin-4-yl)amino)-4-fluoro-N-isopropyl-2-methylbenzamide]: the Dmax was below 45%.

Regarding `Cc1cc(F)c(Nc2nc(-c3ccc4c(c3)N(C3CC(N5CCCCC5)C3)C(=O)C43CCN(C(=O)CCCCCCCCCNc4ccc5c(c4)C(=O)N(C4CCC(=O)NC4=O)C5=O)CC3)cc3ncn(C(C)C)c23)cc1C(=O)NC(C)C` (stereo not drawn) [Example 4, 5-((6-(1′-(10-((2-(2,6-dioxopiperidin-3-yl)-1,3-dioxoisoindolin-5-yl)amino)decanoyl)-2-oxo-1-((1s,3s)-3-(piperidin-1-yl)cyclobutyl)spiro[indoline-3,4′-piperidin]-6-yl)-3-isopropyl-3H-imidazo[4,5-c]pyridin-4-yl)amino)-4-fluoro-N-isopropyl-2-methylbenzamide], the Dmax is below 45%.

Consider `Cc1cc(F)c(Nc2nc(-c3ccc4c(c3)N(C3CC(N5CCCCC5)C3)C(=O)C43CCN(C(=O)CCOCCOCCOCCNc4ccc5c(c4)C(=O)N(C4CCC(=O)NC4=O)C5=O)CC3)cc3ncn(C(C)C)c23)cc1C(=O)NC(C)C` (stereo not drawn) [Example 5, 5-((6-(1′-(3-(2-(2-(2-((2-(2,6-dioxopiperidin-3-yl)-1,3-dioxoisoindolin-5-yl)amino)ethoxy)ethoxy)ethoxy)propanoyl)-2-oxo-1-((1s,3s)-3-(piperidin-1-yl)cyclobutyl)spiro[indoline-3,4′-piperidin]-6-yl)-3-isopropyl-3H-imidazo[4,5-c]pyridin-4-yl)amino)-4-fluoro-N-isopropyl-2-methylbenzamide], for which the Dmax is below 45%.

`Cc1cc(F)c(Nc2nc(-c3ccc4c(c3)N([C@H]3C[C@@H](N5CCCCC5)C3)C(=O)C43CCN(C(=O)CCCCCCCCCOc4cc(-c5scnc5C)ccc4CNC(=O)[C@@H]4C[C@@H](O)CN4C(=O)[C@@H](NC(=O)C4(F)CC4)C(C)(C)C)CC3)cc3ncn(C(C)C)c23)cc1C(=O)NC(C)C` [Example 6, (2S,4R)—N-(2-((10-(6-(4-((2-fluoro-5-(isopropylcarbamoyl)-4-methylphenyl)amino)-3-isopropyl-3H-imidazo[4,5-c]pyridin-6-yl)-2-oxo-1-((1s,3s)-3-(piperidin-1-yl)cyclobutyl)spiro[indoline-3,4′-piperidin]-1′-yl)-10-oxodecyl)oxy)-4-(4-methylthiazol-5-yl)benzyl)-1-((S)-2-(1-fluorocyclopropane-1-carboxamido)-3,3-dimethylbutanoyl)-4-hydroxypyrrolidine-2-carboxamide]: the Dmax was below 45%.

On to `Cc1cc(F)c(Nc2nc(-c3ccc4c(c3)N([C@H]3C[C@@H](N5CCCCC5)C3)C(=O)C43CCN(C(=O)CCCCCC(=O)N[C@H](C(=O)N4C[C@H](O)C[C@H]4C(=O)N[C@@H](C)c4ccc(-c5scnc5C)cc4)C(C)(C)C)CC3)cc3ncn(C(C)C)c23)cc1C(=O)NC(C)C` [Example 7, (2S,4R)-1-((S)-2-(7-(6-(4-((2-fluoro-5-(isopropylcarbamoyl)-4-methylphenyl)amino)-3-isopropyl-3H-imidazo[4,5-c]pyridin-6-yl)-2-oxo-1-((1s,3s)-3-(piperidin-1-yl)cyclobutyl)spiro[indoline-3,4′-piperidin]-1′-yl)-7-oxoheptanamido)-3,3-dimethylbutanoyl)-4-hydroxy-N—((S)-1-(4-(4-methylthiazol-5-yl)phenyl)ethyl)pyrrolidine-2-carboxamide], for which the Dmax is above 65%.
